The results in this text go back to patent US20190202836A1, “SELECTIVE DUAL INHIBITORS OF PI3 DELTA AND GAMMA PROTEIN KINASES” (Rhizen Pharmaceuticals SA, priority 2014, published 2019).

In general, GI50 refers to the concentration that inhibits growth by half. One may read the IC50 as the concentration that gives 50% inhibition. A word on the fraction unbound: it is the share of the substance not bound to proteins or other matrix. A low value points to extensive binding.

The test system of data set [1] is T-lymphoma (MOLT-4, Jurkat, CCRF-CEM, Hut-78 and HuT-102) cells. The data set can be described thus: Assay 2: In vitro cell proliferation assay in leukemic cell lines (MTT). It is filed as cell-based. As for the experimental part:
Growth inhibition assays were carried out using 10% FBS supplemented media. Cells were seeded at a concentration of 5000-20,000 cells/well in a 96-well plate. Test compounds at a concentration ranging from 0.01 to 10000 nM were added after 24 hours. Growth was assessed using the 3-[4,5-dimethylthiazol-2-yl]-2,5-diphenyltetrazolium bromide (MTT) dye reduction test at 0 hour (prior to the addition of the test compound) and 72 hours after the addition of test compound. Absorbance was read on a Fluostar Optima (BMG Labtech, Germany) at a wavelength of 450 nm. Data were analysed using GraphPad Prism and percent inhibition due to the test compound compared to the control was calculated accordingly.

In another data set the target is T1, PI3K alpha (Mus musculus, UniProt P42337).
T1 construct: endogenous in cells; host or cells: 3T3 fibroblasts
Briefly: Assay 4A4: PDGF induced Akt phosphorylation in 3T3 cells. The conditions noted are these: 3T3 fibroblasts. It is filed as cell-based. As to the method:
The objective of this study was to determine the effect of Compound A1 on PI3Kα kinase mediated AktS473 phosphorylation in PDGF induced 3T3 fibroblasts. • 3T3 cells were treated with desired concentrations of the test compound for 15 minutes. 1 ml of 2× PDGF was added such that the final concentration was 20 ng/ml and incubated for 10 minutes. • Media was discarded and washed with 1 ml of ice-cold 1× PBS. • 250 μl of cell lysis buffer was added and incubated on ice for 30 minutes. • Samples were centrifuged and supernatant was collected and stored at −80° C. until analysis. • Samples were analyzed by Western Blotting using pAKT (S473) as the primary and anti-rabbit IgG-HRP as a secondary antibody. • Intensity of the bands was determined using ImageJ 1.42q (NIH, USA) and normalized to Actin (loading control). Data was plotted using GraphPad Prism (Version 5.02).

Data set [2] is described as follows: Plasma protein binding (equilibrium dialysis), human. Type of data set: in vitro ADME. To be noted: pH 7.4, 37° C. As to the method: Below is provided the procedure for measuring plasma protein binding (using an equilibrium dialysis method). 745 μL of plasma was transferred into a 2 ml micro centrifuge tube. To that 5 μL of Compound A1 (150 μM) was added. Samples were mixed in the table top vortexer for 2 minutes. 50 μL plasma (n=2) was transferred in a pre-labeled 1.5 mL micro centrifuge tube treated as 0 hour sample.
The remaining 650 μL plasma sample were incubated for 30 minutes at 37° C. in a water bath. After 30 minute incubation, 50 μL plasma (n=2) was removed in a pre-labelled 1.5 mL micro centrifuge tube treated as 0.5 hour sample. 200 μL of the plasma sample (n=2) was transferred into the sample chamber which was indicated by the red ring. The red insert was placed into the base plate and 350 μL of buffer was transferred into the buffer chamber. Plates were incubated at 37° C. at approximately 100 RPM on an orbital shaker or 20 RPM on an up-and-down shaker for 4 hours. 50 μL of post dialysis-sample from the buffer and the plasma chambers were transferred into a pre-labelled micro centrifuged tube. 50 μL of plasma was added to the buffer samples and an equal volume of buffer (KH2PO4 Buffer pH 7.4) to the collected plasma samples. 150 μL of methanol containing internal standard (Tolbutamide 250 ng/ml) was added to precipitate the protein and release compound. […]
(In equilibrium dialysis only unbound substance equilibrates across the membrane.)

T1 sequence (P42337 whole entry): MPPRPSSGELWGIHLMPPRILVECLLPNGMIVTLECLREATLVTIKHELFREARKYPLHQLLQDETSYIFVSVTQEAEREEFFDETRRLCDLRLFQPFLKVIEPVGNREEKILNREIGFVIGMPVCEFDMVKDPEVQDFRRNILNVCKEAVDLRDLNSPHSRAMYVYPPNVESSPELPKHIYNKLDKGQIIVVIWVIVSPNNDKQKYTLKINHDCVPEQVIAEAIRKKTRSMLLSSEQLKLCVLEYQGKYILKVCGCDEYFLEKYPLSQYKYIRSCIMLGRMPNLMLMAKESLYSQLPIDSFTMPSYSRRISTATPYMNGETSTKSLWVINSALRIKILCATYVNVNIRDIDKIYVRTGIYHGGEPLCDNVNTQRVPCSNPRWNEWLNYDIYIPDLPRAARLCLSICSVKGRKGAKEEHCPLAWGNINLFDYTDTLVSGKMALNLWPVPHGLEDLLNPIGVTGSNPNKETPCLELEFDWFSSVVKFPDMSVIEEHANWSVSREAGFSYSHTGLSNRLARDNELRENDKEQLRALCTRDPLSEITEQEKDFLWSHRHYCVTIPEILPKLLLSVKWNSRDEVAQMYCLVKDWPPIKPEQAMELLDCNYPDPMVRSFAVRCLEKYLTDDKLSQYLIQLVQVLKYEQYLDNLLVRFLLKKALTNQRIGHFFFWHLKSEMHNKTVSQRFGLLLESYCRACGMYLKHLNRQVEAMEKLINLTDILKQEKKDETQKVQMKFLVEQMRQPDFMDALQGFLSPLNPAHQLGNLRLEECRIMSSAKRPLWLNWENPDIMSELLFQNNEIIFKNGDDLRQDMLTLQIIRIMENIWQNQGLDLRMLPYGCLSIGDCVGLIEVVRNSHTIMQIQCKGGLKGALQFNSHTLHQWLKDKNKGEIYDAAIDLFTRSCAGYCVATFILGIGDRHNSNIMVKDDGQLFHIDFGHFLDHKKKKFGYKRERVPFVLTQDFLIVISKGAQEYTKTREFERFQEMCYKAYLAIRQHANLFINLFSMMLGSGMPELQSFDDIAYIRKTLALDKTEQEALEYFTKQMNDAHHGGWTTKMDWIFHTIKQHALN
T1 sequence (P26450 whole entry partner): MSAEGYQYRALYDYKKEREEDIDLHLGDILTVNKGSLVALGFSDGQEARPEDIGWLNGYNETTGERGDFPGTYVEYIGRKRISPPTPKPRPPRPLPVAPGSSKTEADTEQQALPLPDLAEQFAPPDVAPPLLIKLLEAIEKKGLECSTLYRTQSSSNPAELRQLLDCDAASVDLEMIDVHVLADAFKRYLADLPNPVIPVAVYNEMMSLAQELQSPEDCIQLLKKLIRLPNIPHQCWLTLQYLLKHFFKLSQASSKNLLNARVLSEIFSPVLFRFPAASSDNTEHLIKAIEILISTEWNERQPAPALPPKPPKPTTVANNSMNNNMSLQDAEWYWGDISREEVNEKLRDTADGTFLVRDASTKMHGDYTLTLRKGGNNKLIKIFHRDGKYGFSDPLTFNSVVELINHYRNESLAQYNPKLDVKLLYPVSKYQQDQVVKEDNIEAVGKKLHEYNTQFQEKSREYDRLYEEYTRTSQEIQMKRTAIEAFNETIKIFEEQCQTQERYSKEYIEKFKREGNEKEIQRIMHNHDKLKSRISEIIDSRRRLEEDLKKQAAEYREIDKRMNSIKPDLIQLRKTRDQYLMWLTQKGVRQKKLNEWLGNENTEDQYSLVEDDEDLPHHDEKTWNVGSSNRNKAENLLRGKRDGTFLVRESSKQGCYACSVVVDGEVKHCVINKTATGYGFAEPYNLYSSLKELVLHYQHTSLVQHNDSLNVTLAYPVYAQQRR

Regarding `COc1ccc(-c2nn([C@@H](C)c3oc4cccc(F)c4c(=O)c3-c3cccc(F)c3)c3ncnc(N)c23)cc1NS(C)(=O)=O` [Compound A1, (S)—N-(5-(4-amino-1-(1-(5-fluoro-3-(3-fluorophenyl)-4-oxo-4H-chromen-2-yl)ethyl)-1H-pyrazolo[3,4-d]pyrimidin-3-yl)-2-methoxyphenyl)methanesulfonamide], the GI50 in data set [1] (MOLT-4, Jurkat, CCRF-CEM, Hut-78 and HuT-102, MTT, 72 hours, range over the cell lines, read-out: GI50, reduction in T-lymphoma cell viability) is 2.5 to 12.8 µM. For the same molecule, the “cytotoxicity over the 72 hour incubation period” value in data set [1] (T-lymphoma cell lines, 72 hour incubation) was “did not display any apparent cytotoxicity”. Besides, the “inhibition of PDGF induced AktS473 phosphorylation at 10 μM” value against PI3K alpha (10 μM) was “No inhibition”. On PI3K alpha (PDGF 20 ng/ml, read-out: Cellular IC50 PI3K alpha (PDGF induced pAKT in 3T3 fibroblasts)), the concentration for half-maximal inhibition (IC50) is greater than 10 µM. The molecule also gave a free fraction (fraction unbound) at 4 h, 1 μM in data set [2] of 0.0276.
